The results in this text go back to US12667614B2, “Bacterial microcompartment virus-like particles” (National University of Singapore, priority 2020, dated 2026).

Format in all cases: biochemical
For experiment [1], the target named is T1, Free LacZ (E. coli beta-galactosidase), N-terminal His6, fused to S2CP(30); LacZ-S2CP(30), SEQ ID NO: 103 (Escherichia coli, UniProt P00722).
T1 construct: homotetramer
Description: Steady-state kinetics of free LacZ (ONPG hydrolysis). To be noted: free LacZ 10 nM; ONPG 0.050 to 1.5 mM; TBS-50/350 pH 8.0, 1 mM MgCl2; mean with standard error, triplicates. As for the experimental part: (§1) For APEX2, all reagents were made to the appropriate working concentrations using TBS-50/350 pH 8.0. Working solutions of guaiacol and H2O2, both at 10 mM, were prepared on the day of assay. The guaiacol solution was shaken vigorously at 30° C. to ensure complete dissolution before equilibration back to room temperature. The assay concentration for APEX2 was 10 nM, H2O2 1 mM and that for guaiacol ranged from 0.20 to 2.0 mM. Total reaction volume was 200 μL. Reactions were monitored by the absorbance of tetraguaiacol formed at 470 nm using a BioTek Synergy™ HT microplate reader. […] This time point was taken for initial rate, V0, measurement. Kinetic constants were obtained using non-linear least square Michaelis-Menten fitting in GraphPad Prism software.
For steady-state kinetics of LacZ, all reagents were made to the appropriate working concentrations using TBS-50/350 pH 8.0 supplemented with 1 mM MgCl2. Working solutions of ONPG at 10 mM were prepared from a 50 mM stock solution in DMSO on the day of assay. The assay concentration for LacZ was 10 nM and that for ONPG (ortho-nitrophenyl-β-galactoside) ranged from 0.050 to 1.5 mM. Total reaction volume was 100 μL. Hydrolysis of ONPG was tracked by absorbance measurements at 405 nm. […]

For experiment [2], the target named is T2, LacZ + shell: LacZ (E. coli beta-galactosidase), N-terminal His6, fused to S2CP(30), SEQ ID NO: 103, encapsulated in Cso-BMC (Cso-PSIIH) shell (Escherichia coli, UniProt P00722).
T2 construct: homotetramer
T2 sequence (P00722 other isoform, or with tags, fused parts or gaps): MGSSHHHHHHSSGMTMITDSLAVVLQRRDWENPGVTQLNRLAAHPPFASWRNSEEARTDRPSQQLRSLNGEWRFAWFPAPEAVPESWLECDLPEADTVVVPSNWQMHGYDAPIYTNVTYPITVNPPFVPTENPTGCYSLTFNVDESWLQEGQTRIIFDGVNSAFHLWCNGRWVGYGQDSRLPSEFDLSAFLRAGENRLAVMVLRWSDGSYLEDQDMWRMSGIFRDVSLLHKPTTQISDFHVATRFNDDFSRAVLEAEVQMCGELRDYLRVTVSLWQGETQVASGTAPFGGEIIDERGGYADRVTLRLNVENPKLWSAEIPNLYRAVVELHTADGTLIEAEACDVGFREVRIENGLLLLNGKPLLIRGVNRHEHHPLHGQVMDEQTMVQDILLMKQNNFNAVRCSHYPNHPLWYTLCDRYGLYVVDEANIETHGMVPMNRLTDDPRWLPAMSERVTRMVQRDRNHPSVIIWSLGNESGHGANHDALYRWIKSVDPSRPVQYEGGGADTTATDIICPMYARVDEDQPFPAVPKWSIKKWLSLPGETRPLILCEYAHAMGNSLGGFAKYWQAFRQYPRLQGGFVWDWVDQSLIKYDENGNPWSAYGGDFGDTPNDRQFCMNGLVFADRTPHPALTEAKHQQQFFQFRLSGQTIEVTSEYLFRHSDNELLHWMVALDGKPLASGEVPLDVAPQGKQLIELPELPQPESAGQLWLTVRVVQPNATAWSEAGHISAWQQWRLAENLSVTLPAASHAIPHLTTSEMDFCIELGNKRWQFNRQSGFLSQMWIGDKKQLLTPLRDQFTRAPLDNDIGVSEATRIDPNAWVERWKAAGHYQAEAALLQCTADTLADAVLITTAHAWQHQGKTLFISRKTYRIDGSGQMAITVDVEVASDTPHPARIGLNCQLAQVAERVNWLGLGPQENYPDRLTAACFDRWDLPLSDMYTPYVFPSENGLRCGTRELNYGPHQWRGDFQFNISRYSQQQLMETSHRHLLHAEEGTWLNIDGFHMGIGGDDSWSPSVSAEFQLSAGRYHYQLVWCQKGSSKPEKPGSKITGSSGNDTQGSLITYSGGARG
Nature of the experiment: Steady-state kinetics of Cso-BMC encapsulated LacZ (ONPG hydrolysis). The method, then:
as §1
For steady-state kinetics of LacZ, all reagents were made to the appropriate working concentrations using TBS-50/350 pH 8.0 supplemented with 1 mM MgCl2. Working solutions of ONPG at 10 mM were prepared from a 50 mM stock solution in DMSO on the day of assay. The assay concentration for LacZ was 10 nM and that for ONPG (ortho-nitrophenyl-β-galactoside) ranged from 0.050 to 1.5 mM. Total reaction volume was 100 μL. Hydrolysis of ONPG was tracked by absorbance measurements at 405 nm.
To probe the capacity of the Cso-BMC for encasing enzymes of considerably different molecular sizes, an evolved pea cytosolic ascorbate peroxidase (APEX2), a 27.0 kDa monomer [Lam et al., Nature Methods 12(1): 51-54 (2015)], and E. coli beta-galactosidase (LacZ), a 466.0 kDa homotetramer, were chosen for encapsulation [Golan, et al., Biochimica et Biophysica Acta (BBA)—Bioenergetics, 1293(2): 238-242; Lam et al., Nature Methods 12(1): 51-54 (2015)]. […] Enzymes were also N-terminally tagged with the hexahistidine (Hiss) tag to facilitate downstream removal of unencapsulated enzymes that might co-purify with shells (Nichols, Kennedy, & Tullman-Ercek, 2019). Cso-PSIIH shells co-expressed with enzymes were constructed and purified. SDS-PAGE analysis and Western blotting confirmed the presence of the target enzymes in shell samples (FIG. 18A-B) and the average copy numbers of enzymes per shell were estimated by Coomassie blue densitometry (Table 8) [Hagen, A., et al., Nature Communications 9: 2881 (2018); Nichols et al., Methods in Enzymology, 617, 155-186 (2019)].
Encapsulation of an enzyme into a protein shell is known to alter the enzyme's catalytic properties in some cases. To probe how encapsulation by the Cso-BMC might affect the catalytic efficiencies of APEX2 and LacZ, we performed steady-state kinetics of both free and encapsulated enzymes and fitted the data to the Michaelis-Menten model to obtain the turnover number (kcat), Michaelis-Menten constant (KM), and catalytic efficiency (kcat/KM) (Table 8, FIG. 19). […]

The target of experiment [3] is T3, APEX2 + shell: APEX2 (evolved pea cytosolic ascorbate peroxidase), N-terminal His6, fused to S2CP(30), SEQ ID NO: 110, encapsulated in Cso-BMC (Cso-PSIIH) shell (Glycine max, UniProt Q43758, A134P/E112K/K14D/W41F).
T3 sequence (Q43758 with tags, fused parts or gaps A134P/E112K/K14D/W41F): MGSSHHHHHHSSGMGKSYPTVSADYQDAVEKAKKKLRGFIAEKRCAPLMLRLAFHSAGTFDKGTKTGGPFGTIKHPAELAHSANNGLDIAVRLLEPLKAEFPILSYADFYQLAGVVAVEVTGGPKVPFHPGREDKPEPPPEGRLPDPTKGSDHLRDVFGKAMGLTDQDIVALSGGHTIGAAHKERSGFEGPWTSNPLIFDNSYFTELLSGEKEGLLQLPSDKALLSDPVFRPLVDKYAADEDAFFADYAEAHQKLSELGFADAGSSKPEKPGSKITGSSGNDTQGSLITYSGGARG
Nature of the experiment: Steady-state kinetics of Cso-BMC encapsulated APEX2 (guaiacol oxidation). Particulars: decreased to. The method, then: as §1
To probe the capacity of the Cso-BMC for encasing enzymes of considerably different molecular sizes, an evolved pea cytosolic ascorbate peroxidase (APEX2), a 27.0 kDa monomer [Lam et al., Nature Methods 12(1): 51-54 (2015)], and E. coli beta-galactosidase (LacZ), a 466.0 kDa homotetramer, were chosen for encapsulation [Golan, et al., Biochimica et Biophysica Acta (BBA)—Bioenergetics, 1293(2): 238-242; Lam et al., Nature Methods 12(1): 51-54 (2015)]. […]

Where [4] appears, read: encapsulated LacZ 10 nM, ONPG 0.050 to 1.5 mM, TBS-50/350 pH 8.0, 1 mM MgCl2, mean with standard error, triplicates.

T1 sequence (P00722 other isoform, or with tags, fused parts or gaps): as the sequence (P00722 other isoform, or with tags, fused parts or gaps) above

As to `O=[N+]([O-])c1ccccc1O[C@@H]1O[C@H](CO)[C@H](O)[C@H](O)[C@H]1O` [ONPG, ortho-nitrophenyl-β-galactoside], in experiment [1], the kcat came out at 258 ± 17 s⁻¹ and the kcat/KM is 15.2 ± 2.05 × 10^5 (s^−1 · M^−1). In addition, in experiment [2] (comparison in words with free LacZ), the “kcat/KM of encapsulated LacZ compared with the free enzyme” value was “not significantly different from the free enzyme”. For the same compound, in experiment [2] (setting [4]), the Michaelis constant (Km) is 140 ± 20 µM, the kcat turned out to be 200 ± 14 s⁻¹ and the kcat/KM was 14.3 ± 2.27 × 10^5 (s^−1 · M^−1).

As to `COc1ccccc1O` [guaiacol], in experiment [3], the “kcat/KM of encapsulated APEX2 relative to the free enzyme” value is reported as “approximately 30%”.

One may read the kcat as the maximal rate divided by the concentration of active sites. The term Km denotes the substrate concentration at which the rate is half of its maximum.
